In general, EC50 refers to the midpoint of the concentration-response curve.

Each structure is given as a SMILES string.

In one test the target is T1, IRAK4 (Homo sapiens, UniProt Q9NWZ3).
T1 construct: endogenous in cells; host or cells: THP-1 cells
T1 sequence (Q9NWZ3 1-460): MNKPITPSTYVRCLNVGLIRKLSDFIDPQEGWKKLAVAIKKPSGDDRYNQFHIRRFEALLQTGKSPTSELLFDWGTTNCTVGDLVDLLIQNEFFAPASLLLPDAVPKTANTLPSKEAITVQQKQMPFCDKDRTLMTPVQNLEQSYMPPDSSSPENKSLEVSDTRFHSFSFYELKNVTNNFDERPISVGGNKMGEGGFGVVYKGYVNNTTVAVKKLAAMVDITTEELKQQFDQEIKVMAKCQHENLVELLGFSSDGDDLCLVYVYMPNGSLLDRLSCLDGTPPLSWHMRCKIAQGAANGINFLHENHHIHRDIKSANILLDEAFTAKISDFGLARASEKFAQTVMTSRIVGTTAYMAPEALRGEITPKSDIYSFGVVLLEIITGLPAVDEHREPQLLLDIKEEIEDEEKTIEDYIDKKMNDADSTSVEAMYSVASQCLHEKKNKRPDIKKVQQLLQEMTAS
In words: LVL THP1 HTRF (THP1 Homogeneous Time Resolved Fluorescence). The test is classed as cell-based. As to conditions: THP1 cells, 18 h incubation with compound. The method in brief: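 IRAK4 HTRF read-out (665/615 nm ratio, anti-IRAK4 d2 acceptor and K donor, 18 h dark incubation at room temperature) on lysates of THP-1 cells. Cells were treated 18 h at 37° C. with 20 nL compound in DMSO, in colorless RPMI with 10% FBS, with a duplicate CTG plate.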
(TR-FRET usually uses a lanthanide donor and a delayed reading to cut background.)
For the compound `C[C@H](C#N)Nc1cc(-n2ncc3cc(C#N)c(N)nc32)ncc1-n1cc([C@H]2CC[C@H](CCN3CCN(c4ccc([C@@]5(C)CCC(=O)NC5=O)nn4)CC3)CC2)nn1` (single isomer, unassigned) [P-309], the “LVL THP1 HTRF YMIN” value amounted to 96.8%.

As to `C[C@]1(c2ccc(N3CCN(CC[C@H]4CC[C@H](c5cn(-c6cnc(-n7ncc8cc(C#N)c(N)nc87)cc6NC6(C#N)CC6)nn5)CC4)CC3)cc2)CCC(=O)NC1=O` [P-246], the “LVL THP1 HTRF YMIN” value is listed as 4.1%.

The test is the same for the next values; noted with them: THP1 cells, 18 h incubation with compound, read-out: LVL THP1 HTRF EC50.
In the case of `C[C@H](C#N)Nc1cc(-n2ncc3cc(C#N)c(N)nc32)ncc1-n1cc([C@H]2CC[C@H](CCN3CCN(c4ccc([C@@]5(C)CCC(=O)NC5=O)nn4)CC3)CC2)nn1` (single isomer, unassigned) [P-309], the DC50 was found to be 1000 nM.

For `C[C@]1(c2ccc(N3CCN(CC[C@H]4CC[C@H](c5cn(-c6cnc(-n7ncc8cc(C#N)c(N)nc87)cc6NC6(C#N)CC6)nn5)CC4)CC3)cc2)CCC(=O)NC1=O` [P-246], the DC50 was 6.8 nM.

A further test concerns the target T1, IRAK4. In words: ALE THP1 HTRF (Advanced Lipoxidation End Product THP1 Homogeneous Time Resolved Fluorescence). As to conditions: THP1 cells. The test is classed as cell-based. On the procedure: For Homogenous Time Resolved Fluorescence (HTRF) assays, a Cisbio HTRF kit was used, which included: Lysis Buffer #1 4×, Blocking Reagent #3 100×, 20× Antibody 1 (Anti-IRAK4 d2), 20× Antibody 2 (Anti-IRAK4 k), and Detection Buffer.
4× Lysis Buffer was stored at 4° C. For use as 1× Lysis buffer, the 4× solution was diluted with de-ionized water (distilled water, Gibco Cat. #15230279) and 100× Blocking Reagent in a 1:3:0.04 volume ratio.
20× Antibody Solution aliquots were stored in −80° C. and the Detection Buffer was stored in 4° C. For use as a 1× Antibody Solution, the 20× Antibody Solution aliquot was diluted with Detection Buffer in a 1:19 volume ratio.
Cells were lysed at room temperature for 45 min with shaking. A BCA protein assay was performed and normalization was conducted to the desired total protein concentration with 1× lysis buffer. Next, 1× Antibody Solutions were prepared by adding 380 μL Detection Buffer to 20 μL 20× Antibody Solution aliquots and mixing well. 1× Antibody Solutions were combined 1:1 and briefly vortexed. For control wells, 20 μL 1× anti IRAK4-k Antibody Solution was saved. The 384-well plate (ProxiPlate-384 Plus, Perkin Elmer Cat. #6008289) was loaded by adding 4 μL of the mixed Antibody Solution to empty wells using a single channel repeater. Using a multi-channel repeater, 16 μL lysate was added per well, and any bubbles that were formed were popped with 20 μL pipette tips and Kimwipe edges. In column 10, triplicates of each control was prepared. In wells A10, B10, and C10, buffer control was prepared by adding 16 μL Lysis Buffer and 4 μL Detection Buffer. In wells D10, E10, and F10, cryptate control was prepared by adding 16 μL Lysis Buffer, 2 μL Detection Buffer, and 2 μL 1× anti IRAK4-k Antibody Solution. In wells G10, H10, and I10, a negative control was prepared by adding 16 μL Lysis Buffer and 4 μL mixed Antibody Solution. The plate was sealed with a clear seal and covered with an aluminum lid. The plate was spun down at 800 g for 5 min and incubated in the dark at room temperature overnight. The next day, the plate was spun down at 800 g for 5 min. The samples were analyzed by a plate reader (Envision, PerkinElmer) using the Desnor 384 HTRF program.
Consider `CC(C)(O)CNc1cc(-n2ncc3cc(C#N)cnc32)ncc1C(=O)N[C@H]1CC[C@H](CCN2CCN(c3ccc(C4CCC(=O)NC4=O)cc3)CC2)CC1` (stereo partly drawn) [P-108], for which the “ALE THP1 HTRF YMIN” value is 11.0% and the EC50 worked out at 32 nM.

Regarding `N#Cc1cnc2c(cnn2-c2cc(NC3CCCC3)c(C(=O)NC3CCC(C(=O)NC4CCN(c5ccc(C6CCC(=O)NC6=O)cc5)CC4)CC3)cn2)c1` (stereo not drawn) [P-28], the “ALE THP1 HTRF YMIN” value was 36.6% and a half-maximal response (EC50) required 145 nM.

Turning to `C[C@H](C#N)Nc1cc(-n2ncc3cc(C#N)cnc32)ncc1C(=O)N[C@H]1CC[C@H](CCN2CCN(c3ccc(C4CCC(=O)NC4=O)cc3)CC2)CC1` (stereo partly drawn) [P-91, 6-(5-Cyano-1H-pyrazolo[3,4-b]pyridin-1-yl)-4-(((R)-1-cyanoethyl)amino)-N-((1r,4r)-4-(2-(4-(4-(2,6-dioxopiperidin-3-yl)phenyl)piperazin-1-yl)ethyl)cyclohexyl)nicotinamide], the “ALE THP1 HTRF YMIN” value was 7.0% and the EC50 was determined as 5 nM.

Regarding `N#Cc1cnc2c(c1)c(F)cn2-c1cc(NC2CC2)c(C(=O)NC2CCC(CCN3CCN(c4ccc(C5CCC(=O)NC5=O)cc4)CC3)CC2)cn1` (stereo not drawn) [P-101], the “ALE THP1 HTRF YMIN” value was 24.6% and the EC50 stood at 92 nM.

On to `N#Cc1cnc2c(cnn2-c2cc(NC[C@H]3CCCO3)c(C(=O)N[C@H]3CC[C@H](CCN4CCN(c5ccc(C6CCC(=O)NC6=O)cc5)CC4)CC3)cn2)c1` (stereo partly drawn) [P-106], for which the “ALE THP1 HTRF YMIN” value worked out at 17.5% and the EC50 was determined as 246 nM.

Consider `N#Cc1cnc2c(cnn2-c2cc(NC3CC3)c(C(=O)N[C@H]3CC[C@H]([C@@H]4C[C@H]4N4CCN(c5ccc(C6CCC(=O)NC6=O)cc5)CC4)CC3)cn2)c1` (relative stereo) [P-111], for which the “ALE THP1 HTRF YMIN” value stood at 15.6% and the concentration giving a half-maximal response (EC50) was determined as 24 nM.

Regarding `N#Cc1cnc2c(cnn2-c2cc(NC3CC3)c(C(=O)NC3CCC(CCN4CCN(c5ccc(C6CCC(=O)NC6=O)nc5)CC4)CC3)cn2)c1` (stereo not drawn) [P-85], the “ALE THP1 HTRF YMIN” value came out at 11.7% and the response was half-maximal at 117 nM (EC50).

With `N#Cc1cnc2c(ccn2-c2cc(NC3CCCC3)c(C(=O)NC3CCC(CCN4CCN(c5ccc(C6CCC(=O)NC6=O)cc5)CC4)CC3)cn2)c1` (stereo not drawn) [P-48], the “ALE THP1 HTRF YMIN” value was 12.0% and the EC50 amounted to 99 nM.

Turning to `CS(=O)(=O)N1CCC(Nc2cc(Nc3ccc4ncsc4c3)ncc2C(=O)NC2CCC(C(=O)N3CCN(c4ccc5c(c4)C(=O)N(C4CCC(=O)NC4=O)C5=O)CC3)CC2)CC1` (stereo not drawn) [P-4, 6-(1,3-benzothiazol-6-ylamino)-N-[4-[4-[2-(2,6-dioxo-3-piperidyl)-1,3-dioxo-isoindolin-5-yl]piperazine-1-carbonyl]cyclohexyl]-4-[(1-methylsulfonyl-4-piperidyl)amino]pyridine-3-carboxamide], the “ALE THP1 HTRF YMIN” value is on record as 35.8% and the EC50 turned out to be 47 nM.

As to `O=C1CCC(N2C(=O)c3ccc(N4CCN(C(=O)[C@H]5CC[C@H](n6cc(-c7cnc(Nc8ccc9ncsc9c8)cc7NC7CCCC7)nn6)CC5)CC4)cc3C2=O)C(=O)N1` (stereo partly drawn) [P-9], the “ALE THP1 HTRF YMIN” value is 20.0% and it took 25 nM to reach a half-maximal effect (EC50).

Regarding `COc1cc(C2CCC(=O)NC2=O)ccc1N1CCN(CCC2CCC(NC(=O)c3cnc(-n4ncc5cc(C#N)cnc54)cc3NC3CC3)CC2)CC1` (stereo not drawn) [P-80], the “ALE THP1 HTRF YMIN” value turned out to be 7.3% and the midpoint of the response, the EC50, lay at 26 nM.

On to `O=C1CCC(c2ccc(N3CCN(CC[C@H]4CC[C@H](NC(=O)c5cnc(-n6ncc7cc(Cl)cnc76)cc5NC5CC5)CC4)CC3)cc2)C(=O)N1` (stereo partly drawn) [P-114], for which the “ALE THP1 HTRF YMIN” value is given as 46.1% and the EC50 was above 5000 nM.

Regarding `N#Cc1cnc2c(cnn2-c2cc(NC3CCCC3)c(C(=O)N[C@H]3CC[C@H](CCN4CCN(c5ccc6c(c5)C(=O)N(C5CCC(=O)NC5=O)C6=O)CC4)CC3)cn2)c1` (stereo partly drawn) [P-61], the “ALE THP1 HTRF YMIN” value worked out at 9.2% and the response was half-maximal at 101 nM (EC50).

Turning to `N#Cc1cnn2c(-c3cc(NC4CCCC4)c(C(=O)NC4CCC(CCN5CCN(c6ccc(C7CCC(=O)NC7=O)cc6)CC5)CC4)cn3)ccc2c1` (stereo not drawn) [P-75], the “ALE THP1 HTRF YMIN” value is 11.4% and the EC50 was 62 nM.

With `N#Cc1cnc2c(c1)ncn2-c1cc(NC2CCCC2)c(C(=O)N[C@H]2CC[C@H](CN3CCN(c4ccc5c(c4)C(=O)N(C4CCC(=O)NC4=O)C5=O)CC3)CC2)cn1` (stereo partly drawn) [P-53], the “ALE THP1 HTRF YMIN” value was 37.6% and a half-maximal response (EC50) required 1890 nM.

In the case of `N#Cc1cnn2c(-c3cc(NC4CC4)c(C(=O)N[C@H]4CC[C@H](CCN5CCN(c6ccc(C7CCC(=O)NC7=O)cc6)CC5)CC4)cn3)ccc2c1` (stereo partly drawn) [P-109], the “ALE THP1 HTRF YMIN” value turned out to be 10.7% and the half-maximal effective concentration (EC50) was 8 nM.

Consider `N#Cc1cnc2c(cnn2-c2cc(NC3CCOCC3)c(C(=O)NC3CCC(CCN4CCN(c5ccc(C6CCC(=O)NC6=O)cc5)CC4)CC3)cn2)c1` (stereo not drawn) [P-74], for which the “ALE THP1 HTRF YMIN” value was 9.4% and the EC50 was 8 nM.

In the case of `N#Cc1cnc2c(cnn2-c2cc(NC3CC3)c(C(=O)N[C@H]3CC[C@H](CCN4CCC(c5ccc(C6(F)CCC(=O)NC6=O)cc5)CC4)CC3)cn2)c1` (single isomer, unassigned) [P-126], the “ALE THP1 HTRF YMIN” value was found to be 14.9% and the midpoint of the response, the EC50, lay at 296 nM.

In the case of `C[C@H](C#N)Nc1cc(-n2ncc3cc(C#N)cnc32)ncc1C(=O)N[C@H]1CC[C@H](CCN2CCC(c3ccc(C4CCC(=O)NC4=O)cc3)CC2)CC1` (stereo partly drawn) [P-143], the “ALE THP1 HTRF YMIN” value turned out to be 6.5% and the EC50 amounted to 4 nM.

On to `N#Cc1cnc2c(cnn2-c2cc(NC3CCCC3)c(-c3cn([C@H]4CC[C@H](CN5CCC(C(=O)Nc6ccc(N7CCC(=O)NC7=O)cc6)CC5)CC4)nn3)cn2)c1` [P-34], for which the “ALE THP1 HTRF YMIN” value is listed as 12.9% and the EC50 was determined as 597 nM.

On to `C[C@@H]1CN(c2ccc(C3CCC(=O)NC3=O)cc2)C[C@@H](C)N1CCC1CCC(NC(=O)c2cnc(-n3ncc4cc(C#N)cnc43)cc2NC2CCCC2)CC1` (stereo partly drawn) [P-68], for which the “ALE THP1 HTRF YMIN” value is listed as 19.3% and a half-maximal effect (EC50) was put at 136 nM.

Turning to `C[C@H](C#N)Nc1cc(-c2cnc3cc(C#N)cnn23)ncc1C(=O)N[C@H]1CC[C@H](CCN2CCN(c3ccc(C4CCC(=O)NC4=O)cc3)CC2)CC1` (stereo partly drawn) [P-147], the “ALE THP1 HTRF YMIN” value is listed as 9.0% and the EC50 stood at 19 nM.

As for `C[C@H]1CN(c2ccc(C3CCC(=O)NC3=O)cc2)C[C@H](C)N1CC[C@H]1CC[C@H](NC(=O)c2cnc(-n3ncc4cc(C#N)cnc43)cc2NC2CC2)CC1` (stereo partly drawn) [P-116], the “ALE THP1 HTRF YMIN” value stood at 8.3% and a half-maximal effect (EC50) was put at 7 nM.

Take `N#Cc1cnc2c(cnn2-c2cc(NC3CCCC3)c(C(=O)NC3CCC(CCN4CCC(Nc5cccc(C6CCC(=O)NC6=O)c5)CC4)CC3)cn2)c1` (stereo not drawn) [P-52]: the “ALE THP1 HTRF YMIN” value was found to be 13.4% and the midpoint of the response, the EC50, lay at 39 nM.

In the case of `CC(C)(C)Nc1cc(-n2ncc3cc(C#N)cnc32)ncc1C(=O)NC1CCC(C(=O)N2CCN(c3ccc4c(c3)C(=O)N(C3CCC(=O)NC3=O)C4)CC2)CC1` (stereo not drawn) [P-26], the “ALE THP1 HTRF YMIN” value is 22.3% and the response was half-maximal at 24 nM (EC50).

Source of the values: patent US20240109881A1, “Heteroaryl Compounds as Ligand Directed Degraders of IRAK4” (Bristol-Myers Squibb Company, priority 2022, published 2024).
